# According to PMC10869644 (Molecular plant, 2024):
# Molecular target: T1, ABA2 (ABA DEFICIENT 2) (Arabidopsis thaliana, UniProt Q9C826)
# T1 sequence (Q9C826 1-285 limits assumed): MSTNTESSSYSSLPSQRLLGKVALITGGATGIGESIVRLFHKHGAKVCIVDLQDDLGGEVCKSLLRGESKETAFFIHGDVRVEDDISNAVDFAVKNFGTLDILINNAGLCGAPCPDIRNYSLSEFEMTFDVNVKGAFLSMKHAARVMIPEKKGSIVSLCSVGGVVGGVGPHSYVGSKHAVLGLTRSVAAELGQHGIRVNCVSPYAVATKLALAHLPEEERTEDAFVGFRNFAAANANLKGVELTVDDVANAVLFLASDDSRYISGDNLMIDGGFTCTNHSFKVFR
# Assay: NADH formation at A340, dehydrogenase activity
# Type: biochemical
# Details: 500 μM NAD+, 30 mM 3,5,5′-trimethylcyclohexanol, 100 mM K2HPO4 pH 7.2, 25°C; noncompetitive
substance,measurement,value
di-18:1-PA,% decrease of activity (2 μg lipid),75%
